Literature values as cited in patent US5968932A, “Method of inhibiting sleep apnea” (Gruenenthal GmbH, priority 1998, dated 1999).

Tested on: central nervous system
Details: known compound, background statement; cited from earlier work

Question: For `C[C@H]1SC[C@@H](C(=O)N[C@@H](Cc2c[nH]cn2)C(=O)N2CCC[C@H]2C(N)=O)NC1=O.O.O.O.O` [Montirelin, (3R, 6R) -N-[(6-methyl-5-oxo-3-thiomorpholinyl)carbonyl]-L-histidyl-L-prolinamide tetrahydrate], which “Central nervous system effect” value is on record?
Answer: exhibits central nervous system stimulating effects
